Assay [1] addresses T1, human STAT6 (truncated, aa122-658, with N-terminal His-tag) (Homo sapiens, UniProt P42226).
T1 construct: Human STAT6 (truncated, aa122-658, with N-terminal His-tag, expressed in insect cells); His-tag (N); made in house; host or cells: insect cells
T1 sequence (P42226 122-658): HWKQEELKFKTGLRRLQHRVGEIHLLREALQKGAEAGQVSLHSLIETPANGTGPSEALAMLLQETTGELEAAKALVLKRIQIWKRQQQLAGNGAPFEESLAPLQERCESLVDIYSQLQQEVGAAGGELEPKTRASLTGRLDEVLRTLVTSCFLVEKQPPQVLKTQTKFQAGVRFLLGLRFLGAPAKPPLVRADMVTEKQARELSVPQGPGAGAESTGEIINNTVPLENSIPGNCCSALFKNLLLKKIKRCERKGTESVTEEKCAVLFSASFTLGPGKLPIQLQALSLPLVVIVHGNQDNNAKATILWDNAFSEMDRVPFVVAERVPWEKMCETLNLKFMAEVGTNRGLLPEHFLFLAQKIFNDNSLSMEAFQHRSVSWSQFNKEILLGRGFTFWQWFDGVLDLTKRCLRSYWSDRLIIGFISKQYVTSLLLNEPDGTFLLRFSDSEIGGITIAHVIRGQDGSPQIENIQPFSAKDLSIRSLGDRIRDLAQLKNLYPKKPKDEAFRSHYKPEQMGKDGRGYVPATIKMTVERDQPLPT
Put plainly: Surface Plasmon Resonance (SPR) assay: binding of compounds to immobilized human STAT6. Particulars: immobilized human STAT6 (aa122-658), 25° C.; geometric mean. The protocol: SPR was used to confirm and quantify binding of compounds to human STAT6. Biacore instruments from the 8K-series (Cytiva) were used, and measurements were performed at 25° C. Human STAT6 (truncated, aa122-658, with N-terminal His-tag, expressed in insect cells) was immobilized in the active flow cells on a CM5 chip using amine-coupling (default settings) at 10 μg/ml in 10 mM acetate buffer pH 5.5, at a contact time of 120-420 sec. and a flow rate of […]. Reference flow cells were deactivated using blank immobilization. PBS-P+ (Cytiva) supplemented with 2% DMSO was used as running buffer, and solvent correction was applied. Compounds were tested by multi-cycle kinetics injections using a contact time of 60 sec., dissociation time of up to 300 sec., and a flow rate of […].
Solvent-corrected, reference-subtracted and blank-corrected data was processed and binding isotherms were fitted according to a single report point from each sensorgram (Standard: Late binding (5 sec. before injection end); alternative: Earlier report point according to binding profile). Data fitting was done both with unfixed Rmax and with Rmax fixed to the theoretical value* assuming 1:1 binding to allow processing of data from both weak and strong binders as well as to evaluate binding stoichiometry.
Positive controls were run at the beginning, during, and at the end of the screen to evaluate surface activity. Generally surface activity was only affected to a minor degree, and no corrections were applied.
*Equation for calculation of the theoretical Rmax (Theoretical Rmax=(MW Analyte/MW Ligand) x immobilization level).
The sensorgrams for Examples 2a1, 2t1, 2m1, and 2a2 are shown below (where RU is plotted vs. time in seconds; dotted lines/points were excluded from the analysis due to effects from non-specific binding).

Assay [2] has as its target T2, STAT6 (endogenous, HiBiT-tagged) in HeLa LgBiT clone 4.14 cells (Homo sapiens, UniProt P42226).
T2 construct: These cells express endogenous STAT6; host or cells: HeLa LgBiT clone 4.14
T2 sequence (P42226 1-847): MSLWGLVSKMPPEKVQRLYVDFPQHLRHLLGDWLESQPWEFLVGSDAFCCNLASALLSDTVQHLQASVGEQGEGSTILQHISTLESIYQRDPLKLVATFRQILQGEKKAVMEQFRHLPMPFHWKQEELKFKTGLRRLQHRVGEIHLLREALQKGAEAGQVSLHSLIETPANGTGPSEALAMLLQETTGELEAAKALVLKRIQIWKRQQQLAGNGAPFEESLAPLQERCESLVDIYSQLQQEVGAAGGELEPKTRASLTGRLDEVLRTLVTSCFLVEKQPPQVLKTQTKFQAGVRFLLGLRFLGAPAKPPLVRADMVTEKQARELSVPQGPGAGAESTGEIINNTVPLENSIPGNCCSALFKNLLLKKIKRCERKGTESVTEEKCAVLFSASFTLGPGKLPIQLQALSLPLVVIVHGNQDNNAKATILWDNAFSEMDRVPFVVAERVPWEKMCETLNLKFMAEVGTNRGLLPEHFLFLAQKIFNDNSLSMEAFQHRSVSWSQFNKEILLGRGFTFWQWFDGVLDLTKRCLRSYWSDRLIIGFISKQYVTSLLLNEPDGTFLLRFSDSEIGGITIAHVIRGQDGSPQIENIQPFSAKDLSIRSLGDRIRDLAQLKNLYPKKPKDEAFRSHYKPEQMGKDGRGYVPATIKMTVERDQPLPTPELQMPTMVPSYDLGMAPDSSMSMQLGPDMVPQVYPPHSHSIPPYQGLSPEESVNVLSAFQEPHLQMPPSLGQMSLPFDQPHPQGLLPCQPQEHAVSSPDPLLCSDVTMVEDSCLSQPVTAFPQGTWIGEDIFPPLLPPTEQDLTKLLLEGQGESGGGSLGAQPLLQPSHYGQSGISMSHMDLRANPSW
Put plainly: STAT6 Degrader Assay (HiBiT based, HeLa LgBiT clone 4.14 cells, luminescence, DC50). It counts as cell-based. To be noted: geometric mean; for DC50: DC50 provided for test compounds with >80% Emax, read-out: STAT6 degradation DC50; for Emax: Emax provided for test compounds with <80% Emax (and 2c15), read-out: STAT6 degradation Emax. A digest of the protocol: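 HeLa LgBiT clone 4.14 cells carry CRISPR-inserted HiBiT on endogenous STAT6; 5000 cells/well were exposed to compound for 4-24 h at 37 °C, 5% CO2. Nano-Glo substrate added for 0.5 h; luminescence reflects remaining STAT6, with terfenadine ([…]) wells defining 100% degradation.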
A general note: HiBiT is a short tag that completes a luciferase, so light tracks the accessible tagged protein.

In assay [3] the test system is Eotaxin-3 (CCL26) release in human whole blood stimulated with IL-4. The assay can be described thus: Human Whole Blood Eotaxin-3 Assay (IL-4 stimulated, inhibition of eotaxin-3 release). It counts as cell-based. To be noted: Homo sapiens, EC50 provided for test compounds with >80% Emax, geometric mean across assay runs and batches. The gist of the method: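 Lithium-heparin human whole blood preincubated 2 h at 37 °C with compounds (4-fold serial dilution, triplicate, 0.5% DMSO final), then stimulated with 400 pM IL-4 for 48 h. Eotaxin-3 (CCL26) in supernatant quantified by MSD immunoassay.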

The structures appear in SMILES notation.

Regarding `Cn1c(CN2CCC(c3ccc(C(=O)N4CCN(C(=O)CN5CCC(c6ccc(NC7CCC(=O)NC7=O)cc6F)CC5)CC4)cc3)CC2)cc2c(-c3ccc4[nH]ncc4c3)ccnc21` (centres unmarked) [Example 2a1, 3-((4-(1-(2-(4-(4-(1-((4-(1H-indazol-5-yl)-1-methyl-1H-pyrrolo[2,3-b]pyridin-2-yl)methyl)-piperidin-4-yl)benzoyl)piperazin-1-yl)-2-oxoethyl)piperidin-4-yl)-3-fluorophenyl)amino)piperidine-2,6-dione], binding in assay [1] was put at a Kd of 224 nM. Moreover, the DC50 in assay [2] worked out at 4.9 nM.

Compound `Cn1c(CN2CCC(c3ccc(C(=O)N4CCN(C(=O)CN5CCN(c6ccc(NC7CCC(=O)NC7=O)cc6F)CC5)CC4)cc3)CC2)cc2c(-c3ccc4[nH]ncc4c3)ccnc21` (centres unmarked) [Example 2a2, 3-((4-(4-(2-(4-(4-(1-((4-(1H-indazol-5-yl)-1-methyl-1H-pyrrolo[2,3-b]pyridin-2-yl)methyl)-piperidin-4-yl)benzoyl)piperazin-1-yl)-2-oxoethyl)piperazin-1-yl)-3-fluorophenyl)amino)piperidine-2,6-dione] yielded a Kd in assay [1] of 61.2 nM. For the same compound, the Emax in assay [2] was in the range of 60 to 70%.

Consider `Cn1c(CN2CCC(c3ccc(C(=O)N4CCn5nc(CN6CCC(c7ccc(NC8CCC(=O)NC8=O)cc7F)CC6)cc5C4)cc3)CC2)cc2c(-c3ccc4[nH]ncc4c3)ccnc21` (centres unmarked) [Example 2q3, 3-((4-(1-((5-(4-(1-((4-(1H-indazol-5-yl)-1-methyl-1H-pyrrolo[2,3-b]pyridin-2-yl)methyl)-piperidin-4-yl)benzoyl)-4,5,6,7-tetrahydropyrazolo[1,5-a]pyrazin-2-yl)methyl)piperidin-4-yl)-3-fluorophenyl)amino)piperidine-2,6-dione], for which the response in assay [3] was half-maximal at 11.3 nM (EC50). Also, the DC50 in assay [2] came to 2.7 nM.

For `Cn1c(CN2CCC(c3ccc(C(=O)N4CCn5nc(CN6CCC(c7ccc(NC8CCC(=O)NC8=O)cc7F)CC6)cc5C4)cc3)CC2)cc2c(-c3ccc(N)nc3)ccnc21` (centres unmarked) [Example 2q4, 3-((4-(1-((5-(4-(1-((4-(6-aminopyridin-3-yl)-1-methyl-1H-pyrrolo[2,3-b]pyridin-2-yl)methyl)-piperidin-4-yl)benzoyl)-4,5,6,7-tetrahydropyrazolo[1,5-a]pyrazin-2-yl)methyl)piperidin-4-yl)-3-fluoro-phenyl)amino)piperidine-2,6-dione], the EC50 in assay [3] worked out at 73.5 nM. Besides, in assay [2], the Emax is 70 to 80%.

`C[C@@H](c1cc2c(-c3ccc(N)nc3)ccnc2n1C)N1CCC(c2ccc(C(=O)N3CCn4nc(CN5CCC(c6ccc(NC7CCC(=O)NC7=O)cc6F)CC5)cc4C3)cc2)CC1` (stereo partly drawn) [Example 2q5, 3-((4-(1-((5-(4-(1-((S)-1-(4-(6-aminopyridin-3-yl)-1-methyl-1H-pyrrolo[2,3-b]pyridin-2-yl)ethyl)-piperidin-4-yl)benzoyl)-4,5,6,7-tetrahydropyrazolo[1,5-a]pyrazin-2-yl)methyl)piperidin-4-yl)-3-fluorophenyl)-amino)piperidine-2,6-dione] had an EC50 in assay [3] of 2.3 nM. Besides, in assay [2], the DC50 stood at 1 nM.

Turning to `C[C@@H](c1cc2c(-c3ccc(N)nc3)ccnc2n1C)N1CCC(c2ccc(C(=O)N3CCn4nc(CN5CCC(c6ncc(NC7CCC(=O)NC7=O)cc6F)CC5)cc4C3)cc2)CC1` (stereo partly drawn) [Example 2q6, 3-((6-(1-((5-(4-(1-((S)-1-(4-(6-aminopyridin-3-yl)-1-methyl-1H-pyrrolo[2,3-b]pyridin-2-yl)ethyl)-piperidin-4-yl)benzoyl)-4,5,6,7-tetrahydropyrazolo[1,5-a]pyrazin-2-yl)methyl)piperidin-4-yl)-5-fluoropyridin-3-yl)amino)piperidine-2,6-dione], the midpoint of the response in assay [3], the EC50, lay at 19.9 nM. Also, the DC50 in assay [2] turned out to be 5.6 nM.

As for `COCc1nc2cc(-c3ccnc4c3cc(CN3CCC(c5ccc(C(=O)N6CCn7nc(CN8CCC(c9ccc(NC%10CCC(=O)NC%10=O)cc9F)CC8)cc7C6)cc5)CC3)n4C)ccc2[nH]1` (centres unmarked) [Example 2q7, 3-((3-fluoro-4-(1-((5-(4-(1-((4-(2-(methoxymethyl)-1H-benzo[d]imidazol-5-yl)-1-methyl-1H-pyrrolo[2,3-b]pyridin-2-yl)methyl)piperidin-4-yl)benzoyl)-4,5,6,7-tetrahydropyrazolo[1,5-a]pyrazin-2-yl)-methyl)piperidin-4-yl)phenyl)amino)piperidine-2,6-dione], the EC50 in assay [3] came to 2.4 nM. Also, the DC50 in assay [2] was 2.6 nM.

In turn, `C[C@@H](c1cc2c(-c3ccc(N)nc3)ccnc2n1C)N1CCC(c2ccc(C(=O)N3CCn4nc(CN5CCC(c6ccc(NC7CCC(=O)NC7=O)cc6F)C(F)(F)C5)cc4C3)cc2)CC1` (stereo partly drawn) [Example 2q9, 3-((4-(1-((5-(4-(1-((S)-1-(4-(6-aminopyridin-3-yl)-1-methyl-1H-pyrrolo[2,3-b]pyridin-2-yl)-ethyl)piperidin-4-yl)benzoyl)-4,5,6,7-tetrahydropyrazolo[1,5-a]pyrazin-2-yl)methyl)-3,3-difluoro-piperidin-4-yl)-3-fluorophenyl)amino)piperidine-2,6-dione] registered an EC50 in assay [3] of 26.7 nM. Further, in assay [2], the DC50 turned out to be 2.9 nM.

In assay [3], `C[C@@H](c1cc2c(-c3ccc(N)nc3)ccnc2n1C)N1CCC(c2ccc(C(=O)N3CCn4nc(CN5CCN(c6ncc(NC7CCC(=O)NC7=O)cc6F)CC5)cc4C3)cc2)CC1` (stereo partly drawn) [Example 2q14, 3-((6-(4-((5-(4-(1-((S)-1-(4-(6-aminopyridin-3-yl)-1-methyl-1H-pyrrolo[2,3-b]pyridin-2-yl)ethyl)-piperidin-4-yl)benzoyl)-4,5,6,7-tetrahydropyrazolo[1,5-a]pyrazin-2-yl)methyl)piperazin-1-yl)-5-fluoropyridin-3-yl)amino)piperidine-2,6-dione] came in with an EC50 of 86.7 nM. In assay [2], the DC50 came to 24.7 nM.

In assay [3], `COCc1nc2cc(-c3ccnc4c3cc([C@H](C)N3CCC(c5ccc(C(=O)N6CCC(CN7CCN(c8ncc(NC9CCC(=O)NC9=O)cc8F)C[C@H]7C)CC6)cc5)CC3)n4C)ccc2[nH]1` (some centres unmarked) [Example 3t5] had an EC50 of 59.5 nM. Moreover, the DC50 in assay [2] was 6 nM.

In general, Kd refers to the concentration at which binding is half-saturated. Usually DC50 stands for the concentration giving 50% degradation. In general, Emax refers to the maximal effect, on the per cent scale that the assay sets. As a reminder, the EC50 is the concentration giving half of the maximal effect. A higher EC50 goes with a less potent agent.

Source of the values: patent publication US20260014147A1, “STAT6 DEGRADERS” (Gilead Sciences, Inc., priority 2024, published 2026).
